According to patent publication US20260098061A1, “EPHA2-BINDING PENDING PEPTIDE AND COMPOSITION COMPRISING SAME” (PeptiDream Inc., priority 2022, published 2026):
pKd: −log10 of the molar value. Numbered stars: 1 amine (or outer) side, 2 acyl side, 3 side chain; on linkers, the order of the positions; unused ones are H or OH. Bridge positions count the residues as written; N and C are the ends. Square brackets hold non-standard residues; d marks the D form. Side chains are listed from the residue outwards. Peptide text beside a SMILES is read from it. * marks the point of attachment. NH(1-deoxy-D-glucityl) = OC[C@@H](O)[C@@H](O)[C@H](O)[C@@H](O)CN*; Trp(1-Me,7-Cl) = Cn1cc(C[C@H](N)C(=O)O)c2cccc(Cl)c21; dPhe(3-CONH2) = NC(=O)c1cccc(C[C@@H](N)C(=O)O)c1; NMePhe(4-Cl) = CN[C@@H](Cc1ccc(Cl)cc1)C(=O)O; X3 = CN([C@@H](Cc1ccnc(N)c1)C(=O)[*:2])[*:1]; Piperazinyl(4-CH2COOH) = O=C(O)CN1CCN(*)CC1; Trp(1-Me) = Cn1cc(C[C@H](N)C(=O)O)c2ccccc21; X5 = Cc1cccc(C[C@H](N[*:1])C(=O)[*:2])c1C; NMe3Pal = CN[C@@H](Cc1cccnc1)C(=O)O; NMeF = CN[C@@H](Cc1ccccc1)C(=O)O; Gly(cBu) = N[C@H](C(=O)O)C1CCC1; NMeE = CN[C@@H](CCC(=O)O)C(=O)O; Aad = N[C@@H](CCCC(=O)O)C(=O)O; NMeN = CN[C@@H](CC(N)=O)C(=O)O; dAhp(2) = CCCCC[C@@H](N)C(=O)O; Chg = N[C@H](C(=O)O)C1CCCCC1; Pen = CC(C)(S)[C@H](N)C(=O)O; CO = O=C([*:1])[*:2]; βAla = NCCC(=O)O

Biological target: T1, Recombinant Human EphA2 Fc Protein (Homo sapiens, UniProt P29317)
T1 construct: purchased Elabscience
Experiment: SPR interaction analysis (Biacore T200), kinetics of peptides against EphA2
Format: binding
Conditions: Recombinant Human EphA2 Fc Protein captured by Human Antibody Capture kit; single-cycle kinetics; 25° C.; HBS-P+ buffer with 1% DMSO
Experimental: Example 14 Interaction Analysis by SPR was Performed Using Biacore (Cytiva)
SPR assay was performed using Biacore T200 (Cytiva).
The HBS-P+ buffer (10 mM HEPES (pH7.4), 150 mM NaCl, 0.05% (v/V) Surfactant P20) containing 1% DMSO was used as running buffer. Recombinant Human EphA2 Fc Protein (Fc tag, Elabscience) was captured by Human Antibody Capture kit (Cytiva). Peptide samples in DMSO were diluted with running buffer, and prepared five serial dilutions. Using these serial dilutions, kinetics of peptides against EphA2 was measured at a flow rate of 30 mL/min at 25° C. The method adopted for sample measurement was a single-cycle kinetics method. The analysis was conducted using the evaluation software 3.0 provided with Biacore T200. Kinetics fitting was done on the difference data obtained by subtracting the baseline data from sample measurement data. KD values were calculated based on the association rate constant (ka) and dissociation rate constant (kd).

Row | pKd | Compound
1 | > 9.00 | C[C@H]1NC(=O)CSC[C@@H](C(N)=O)NC(=O)[C@H](CCCC(N)=O)NC(=O)[C@H]([C@@H](C)O)NC(=O)[C@H](Cc2cn(C)c3ccccc23)NC(=O)[C@H](CCCCNC(=O)N2CCN(CC(=O)O)CC2)NC(=O)[C@H](Cc2cn(C)c3ccccc23)NC(=O)[C@H](Cc2ccc(Cl)cc2)N(C)C(=O)[C@H](CCCC(N)=O)NC(=O)[C@H](C2CCCCC2)NC(=O)[C@H](CC(N)=O)NC(=O)[C@H](Cc2cccnc2)N(C)C1=O [PDC_EphA2-00018538, da-Me3Py-N-Chg-Hgn-MeF4C-W1Me-KCOpipzaa-W1Me-T-Hgn-C-NH2] ({CH2CO}-[dA][NMe3Pal]N[Chg][Aad](NH2)[NMePhe(4-Cl)][Trp(1-Me)]K([CO-Piperazinyl(4-CH2COOH)])[Trp(1-Me)]T[Aad](NH2)C-NH2; thioether N-12)
2 | > 9.00 | CCCCC[C@H]1NC(=O)CSC[C@@H](C(N)=O)NC(=O)[C@H](CCCC(N)=O)NC(=O)[C@H]([C@@H](C)O)NC(=O)[C@H](Cc2cn(C)c3ccccc23)NC(=O)[C@H](CCCCNC(=O)N2CCN(CC(=O)O)CC2)NC(=O)[C@H](Cc2cn(C)c3ccccc23)NC(=O)[C@H](CCC(=O)O)N(C)C(=O)[C@H](CCCC(N)=O)NC(=O)[C@H](CC(C)C)NC(=O)[C@H](CC(N)=O)NC(=O)[C@H](Cc2cccnc2)N(C)C1=O [PDC_EphA2-00018530, dahp-Me3Py-N-L-Hgn-MeE-W1Me-KCOpipzaa-W1Me-T-Hgn-C-NH2] ({CH2CO}-[dAhp(2)][NMe3Pal]NL[Aad](NH2)[NMeE][Trp(1-Me)]K([CO-Piperazinyl(4-CH2COOH)])[Trp(1-Me)]T[Aad](NH2)C-NH2; thioether N-12)
3 | > 9.00 | CNC(=O)C[C@@H]1NC(=O)[C@H]([C@@H](C)O)NC(=O)[C@H](Cc2cn(C)c3ccccc23)NC(=O)[C@H](CCCCNC(=O)N2CCN(CC(=O)O)CC2)NC(=O)[C@H](Cc2cn(C)c3ccccc23)NC(=O)[C@H](Cc2ccccc2)N(C)C(=O)[C@H](CCCC(=O)O)NC(=O)[C@H](CC(C)C)NC(=O)[C@H](CC(N)=O)NC(=O)[C@H](Cc2cccnc2)N(C)C(=O)[C@@H](C)NC(=O)CSC[C@@H](C(N)=O)NC1=O [PDC_EphA2-00018528, da-Me3Py-N-L-Hgl-MeF-W1Me-KCOpipzaa-W1Me-T-Nmm-C-NH2] ({CH2CO}-[dA][NMe3Pal]NL[Aad][NMeF][Trp(1-Me)]K([CO-Piperazinyl(4-CH2COOH)])[Trp(1-Me)]TD(NHMe)C-NH2; thioether N-12)
4 | > 9.00 | CNC(=O)C[C@@H]1NC(=O)[C@H]([C@@H](C)O)NC(=O)[C@H](Cc2cn(C)c3ccccc23)NC(=O)[C@H](CCCCNC(=O)N2CCN(CC(=O)O)CC2)NC(=O)[C@H](Cc2cn(C)c3ccccc23)NC(=O)[C@H](Cc2ccccc2)N(C)C(=O)[C@H](CCCC(N)=O)NC(=O)[C@H](C2CCCCC2)NC(=O)[C@H](CC(N)=O)NC(=O)[C@H](Cc2cccnc2)N(C)C(=O)[C@@H](C)NC(=O)CSC[C@@H](C(N)=O)NC1=O [PDC_EphA2-00018539, da-Me3Py-N-Chg-Hgn-MeF-W1Me-KCOpipzaa-W1Me-T-Nmm-C-NH2] ({CH2CO}-[dA][NMe3Pal]N[Chg][Aad](NH2)[NMeF][Trp(1-Me)]K([CO-Piperazinyl(4-CH2COOH)])[Trp(1-Me)]TD(NHMe)C-NH2; thioether N-12)
5 | 8.00 to 9.00 | CN1C(=O)[C@H](CCC(=O)NC[C@H](O)[C@@H](O)[C@H](O)[C@H](O)CO)NC(=O)[C@H](C2CCC2)NC(=O)[C@H](CC(N)=O)NC(=O)[C@H](Cc2ccnc(N)c2)N(C)C(=O)[C@@H](Cc2cccc(C(N)=O)c2)NC(=O)CSC[C@@H](C(N)=O)NC(=O)[C@H](Cc2cn(C)c3ccccc23)NC(=O)[C@H](CCCCNC(=O)N2CCN(CC(=O)O)CC2)NC(=O)[C@H](Cc2cn(C)c3c(Cl)cccc23)NC(=O)[C@@H]1Cc1cccnc1 [PDC_EphA2-00026605, df3CON-Me4Py2NH2-N-Cbg-Qglucamine-Me3Py-W1Me7Cl-KCOpipzaa-W1Me-C-NH2] ({CH2CO}-[dPhe(3-CONH2)][X3]N[Gly(cBu)]E(NH(1-deoxy-D-glucityl))[NMe3Pal][Trp(1-Me,7-Cl)]K([CO-Piperazinyl(4-CH2COOH)])[Trp(1-Me)]C-NH2; thioether N-10)
6 | 8.00 to 9.00 | CN1C(=O)[C@H](CCCC(N)=O)NC(=O)[C@H](C2CCC2)NC(=O)[C@H](CC(N)=O)NC(=O)[C@H](Cc2cccnc2)N(C)C(=O)[C@@H](Cc2cccc(C(N)=O)c2)NC(=O)CSC(C)(C)[C@@H](C(N)=O)NC(=O)[C@H](Cc2cn(C)c3ccccc23)NC(=O)[C@H](CCCCNC(=O)N2CCN(CC(=O)O)CC2)NC(=O)[C@H](Cc2cn(C)c3c(Cl)cccc23)NC(=O)[C@@H]1CCC(=O)O [PDC_EphA2-00026609, df3CON-Me3Py-N-Cbg-Hgn-MeE-W1Me7Cl-KCOpipzaa-W1Me-CdMe-NH2] ({CH2CO}-[dPhe(3-CONH2)][NMe3Pal]N[Gly(cBu)][Aad](NH2)[NMeE][Trp(1-Me,7-Cl)]K([CO-Piperazinyl(4-CH2COOH)])[Trp(1-Me)][Pen]-NH2; thioether N-10)

Further lines, the compound ahead of its results:

Row | Compound | pKd
7 | CC(=O)NCCCC[C@@H](NC(=O)CCNC(=O)[C@@H]1CSCC(=O)N[C@H](CCCCNC(=O)N2CCN(CC(=O)O)CC2)C(=O)N(C)[C@@H](Cc2cccnc2)C(=O)N[C@@H](CC(N)=O)C(=O)N[C@@H](CC(C)C)C(=O)N[C@@H](CCCC(=O)O)C(=O)N(C)[C@@H](Cc2ccccc2)C(=O)N[C@@H](Cc2cn(C)c3ccccc23)C(=O)N[C@@H](C(C)C)C(=O)N[C@@H](Cc2cn(C)c3ccccc23)C(=O)N[C@@H]([C@@H](C)O)C(=O)N[C@@H](CCC(=O)O)C(=O)N1)C(N)=O [PDC_EphA2-00008084, dkCOpipzaa-Me3Py-N-L-Hgl-MeF-W1Me-V-W1Me-T-E-C-bA-dkAc-NH2] ({CH2CO}-[dK]([CO-Piperazinyl(4-CH2COOH)])[NMe3Pal]NL[Aad][NMeF][Trp(1-Me)]V[Trp(1-Me)]TEC[βAla][dK](Ac)-NH2; thioether N-12) | 8.00 to 9.00
8 | C[C@H]1NC(=O)CSC[C@@H](C(N)=O)NC(=O)[C@H](CCCC(N)=O)NC(=O)[C@H]([C@@H](C)O)NC(=O)[C@H](Cc2cn(C)c3ccccc23)NC(=O)[C@H](CCCCNC(=O)N2CCN(CC(=O)O)CC2)NC(=O)[C@H](Cc2cn(C)c3ccccc23)NC(=O)[C@H](CCC(=O)O)N(C)C(=O)[C@H](CCCC(N)=O)NC(=O)[C@H](C2CCC2)NC(=O)[C@H](CC(N)=O)NC(=O)[C@H](Cc2cccnc2)N(C)C1=O [PDC_EphA2-00010009, da-Me3Py-N-Cbg-Hgn-MeE-W1Me-KCOpipzaa-W1Me-T-Hgn-C-NH2] ({CH2CO}-[dA][NMe3Pal]N[Gly(cBu)][Aad](NH2)[NMeE][Trp(1-Me)]K([CO-Piperazinyl(4-CH2COOH)])[Trp(1-Me)]T[Aad](NH2)C-NH2; thioether N-12) | > 9.00
9 | CC(C)[C@@H]1NC(=O)[C@H](Cc2cn(C)c3ccccc23)NC(=O)[C@H](CC(N)=O)N(C)C(=O)[C@H](CCCC(N)=O)NC(=O)[C@H](C2CCC2)NC(=O)[C@H](CC(N)=O)NC(=O)[C@H](Cc2cccnc2)N(C)C(=O)[C@@H](C)NC(=O)CSC[C@@H](C(N)=O)NC(=O)[C@H](CCCC(N)=O)NC(=O)[C@H]([C@@H](C)O)NC(=O)[C@H](Cc2cn(C)c3ccccc23)NC1=O [PDC_EphA2-00010011, da-Me3Py-N-Cbg-Hgn-MeN-W1Me-V-W1Me-T-Hgn-C-NH2] ({CH2CO}-[dA][NMe3Pal]N[Gly(cBu)][Aad](NH2)[NMeN][Trp(1-Me)]V[Trp(1-Me)]T[Aad](NH2)C-NH2; thioether N-12) | > 9.00
10 | CC(=O)NCCCC[C@@H](NC(=O)CCNC(=O)[C@@H]1CSCC(=O)N[C@H](C)C(=O)N(C)[C@@H](Cc2cccnc2)C(=O)N[C@@H](CC(N)=O)C(=O)N[C@@H](CC(C)C)C(=O)N[C@@H](CCCC(=O)O)C(=O)N(C)[C@@H](Cc2ccccc2)C(=O)N[C@@H](Cc2cn(C)c3ccccc23)C(=O)N[C@@H](CCCCNC(=O)N2CCN(CC(=O)O)CC2)C(=O)N[C@@H](Cc2cn(C)c3ccccc23)C(=O)N[C@@H]([C@@H](C)O)C(=O)N[C@@H](CCCC(N)=O)C(=O)N1)C(N)=O [PDC_EphA2-00008091, da-Me3Py-N-L-Hgl-MeF-W1Me-KCOpipzaa-W1Me-T-Hgn-C-bA-dkAc-NH2] ({CH2CO}-[dA][NMe3Pal]NL[Aad][NMeF][Trp(1-Me)]K([CO-Piperazinyl(4-CH2COOH)])[Trp(1-Me)]T[Aad](NH2)C[βAla][dK](Ac)-NH2; thioether N-12) | > 9.00
11 | CC(=O)NCCCC[C@H](NC(=O)[C@@H]1CSCC(=O)N[C@H](C)C(=O)N(C)[C@@H](Cc2cccnc2)C(=O)N[C@@H](CC(N)=O)C(=O)N[C@@H](CC(C)C)C(=O)N[C@@H](CCCCNC(=O)N2CCN(CC(=O)O)CC2)C(=O)N(C)[C@@H](Cc2ccccc2)C(=O)N[C@@H](Cc2cn(C)c3ccccc23)C(=O)N[C@@H](CCCCNC(=O)N2CCN(CC(=O)O)CC2)C(=O)N[C@@H](Cc2cn(C)c3ccccc23)C(=O)N[C@@H]([C@@H](C)O)C(=O)N[C@@H](CCC(=O)O)C(=O)N1)C(N)=O [PDC_EphA2-00008089, da-Me3Py-N-L-KCOpipzaa-MeF-W1Me-KCOpipzaa-W1Me-T-E-C-KAc-NH2] ({CH2CO}-[dA][NMe3Pal]NLK([CO-Piperazinyl(4-CH2COOH)])[NMeF][Trp(1-Me)]K([CO-Piperazinyl(4-CH2COOH)])[Trp(1-Me)]TECK(Ac)-NH2; thioether N-12) | > 9.00
12 | Cc1cccc(C[C@@H]2NC(=O)[C@H](CCCCNC(=O)N3CCN(CC(=O)O)CC3)NC(=O)[C@H](Cc3cn(C)c4ccccc34)NC(=O)[C@H](Cc3ccccc3)N(C)C(=O)[C@H](CCCC(N)=O)NC(=O)[C@H](C3CCC3)NC(=O)[C@H](CC(N)=O)NC(=O)[C@H](Cc3cccnc3)N(C)C(=O)[C@@H](C)NC(=O)CSC[C@@H](C(N)=O)NC(=O)[C@H](CCCC(N)=O)NC(=O)[C@H]([C@@H](C)O)NC2=O)c1C [PDC_EphA2-00010003, da-Me3Py-N-Cbg-Hgn-MeF-W1Me-KCOpipzaa-F23dMe-T-Hgn-C-NH2] ({CH2CO}-[dA][NMe3Pal]N[Gly(cBu)][Aad](NH2)[NMeF][Trp(1-Me)]K([CO-Piperazinyl(4-CH2COOH)])[X5]T[Aad](NH2)C-NH2; thioether N-12) | > 9.00
